Results published in patent US6534447B1, “Herbicidal pyridine compounds” (BASF Aktiengesellschaft, priority 1999, dated 2003).

Assays:
Assay type in all cases: in vivo
[1] = tested on: Abutilon theophrasti (ABUTH, velvetleaf); experiment: Pre-emergence herbicidal evaluation; settings: 3 weeks after treatment
Outline: (§1)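 Soil-mixed seed sown in pots; spray immediately post-planting, aq. acetone, ~0.025–0.4 kg/ha; greenhouse, routine watering; visual score from 3 wk after treatment.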

[2] = tested on: Matricaria inodora (MATIN, mayweed); experiment: Pre-emergence herbicidal evaluation; settings: 3 weeks after treatment
Outline: as §1

[3] = tested on: Echinochloa grus galli (ECHCG, barnyard grass); experiment: Pre-emergence herbicidal evaluation; settings: 3 weeks after treatment
Outline: as §1

[4] = tested on: Setaria viridis (SETVI, green foxtail); experiment: Pre-emergence herbicidal evaluation; settings: 3 weeks after treatment
Outline: as §1

[5] = tested on: Alopecurus myosuroides (ALOMY, black grass); experiment: Pre-emergence herbicidal evaluation; settings: 3 weeks after treatment
Outline: as §1

[6] = tested on: Stellaria media (STEME, chickweed); experiment: Pre-emergence herbicidal evaluation; settings: 3 weeks after treatment
Outline: as §1

[7] = tested on: Ipomoea hederacea (IPOHE, morning glory); experiment: Pre-emergence herbicidal evaluation; settings: 3 weeks after treatment
Outline: as §1

[8] = tested on: Galium aparine (GALAP, cleaver); experiment: Pre-emergence herbicidal evaluation; settings: 3 weeks after treatment
Outline: as §1

[9] = tested on: Abutilon theophrasti (ABUTH, velvetleaf); experiment: Post-emergence herbicidal evaluation; settings: 3 weeks after treatment
Outline: (§2)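 Injury is scored on a 0–9 scale, where 0 means growth as in untreated controls and 9 means death, from 3 weeks after spraying. Test compound, in acetone diluted with water, is applied at dosages equivalent to about 0.025 to 0.4 kg per hectare per pot, with plants then maintained in the greenhouse.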

[10] = tested on: Matricaria inodora (MATIN, mayweed); experiment: Post-emergence herbicidal evaluation; settings: 3 weeks after treatment
Outline: as §2

[11] = tested on: Echinochloa grus galli (ECHCG, barnyard grass); experiment: Post-emergence herbicidal evaluation; settings: 3 weeks after treatment
Outline: as §2

[12] = tested on: Setaria viridis (SETVI, green foxtail); experiment: Post-emergence herbicidal evaluation; settings: 3 weeks after treatment
Outline: as §2

[13] = tested on: Dolium multiflorum (LOLMU, ryegrass); experiment: Post-emergence herbicidal evaluation; settings: rate 0.100 kg/ha, 3 weeks after treatment
Outline: as §2

[14] = tested on: Alopecurus myosuroides (ALOMY, black grass); experiment: Post-emergence herbicidal evaluation; settings: 3 weeks after treatment
Outline: as §2

[15] = tested on: Stellaria media (STEME, chickweed); experiment: Post-emergence herbicidal evaluation; settings: 3 weeks after treatment
Outline: as §2

[16] = tested on: Ipomoea hederacea (IPOHE, morning glory); experiment: Post-emergence herbicidal evaluation; settings: 3 weeks after treatment
Outline: as §2

[17] = tested on: Galium aparine (GALAP, cleaver); experiment: Post-emergence herbicidal evaluation; settings: 3 weeks after treatment
Outline: as §2

[18] = tested on: Zea mays (ZEAMX, maize); experiment: Pre-emergence herbicidal evaluation (crop); settings: 3 weeks after treatment
Outline: as §1

[19] = tested on: Triticum aestivum (TRZAW, winter wheat); experiment: Pre-emergence herbicidal evaluation (crop); settings: 3 weeks after treatment
Outline: as §1

[20] = tested on: Glycine max (GLXMA, soyabeans); experiment: Pre-emergence herbicidal evaluation (crop); settings: 3 weeks after treatment
Outline: as §1

[21] = tested on: eight weed species; experiment: Pre-emergence herbicidal evaluation, overall weed control
Description: The pre-emergence herbicidal activity of the compounds of the present invention is exemplified by the following test in which the seeds of a variety of monocotyledonous and dicotyledonous plants are seperately mixed with potting soil and planted on top of approximately one inch of soil in separate post. After planting, the pots are sprayed with the selected aqueous acetone solution. containing test compound in sufficient quantity to provide the equivalent of about 0.025 to 0.4 kg per hectare of test compound per pot. The treated pots are then placed on greenhouse benches, watered and cared for in accordance with conventional greenhouse procedures. From 3 weeks after treatment, the tests are terminated and each pot is examined and rated according to the rating system set forth below.
Thus, there is evidence for the good potential of the compounds of the invention for excellent cross spectrum control of both grasses and broadleaf weeds in key crops.

Cc1cc(OCCCSC(F)(F)F)nc(Oc2cc(C(F)(F)F)nn2C)c1 [Example 4]
1 (1 - Trace effect): GLXMA rating ([20]; rate 0.025 kg/ha)
complete weed control: weed control (in words) ([21]; wheat selective dose of 0.4 kg/ha)
6 (6 - Herbicidal effect): IPOHE rating ([7]; rate 0.025 kg/ha) | ALOMY rating ([14]; rate 0.025 kg/ha)
5 (5 - Definite injury): ALOMY rating ([5]; rate 0.025 kg/ha) | ABUTH rating ([9]; rate 0.025 kg/ha) | SETVI rating ([12]; rate 0.025 kg/ha) | STEME rating ([15]; rate 0.025 kg/ha) | STEME rating ([15]; rate 0.100 kg/ha) | IPOHE rating ([16]; rate 0.025 kg/ha)
high levels of activity: weed control (in words) ([21]; crop selective dose of 0.1 kg/ha)
2 (2 - Slight effect): ZEAMX rating ([18]; rate 0.025 kg/ha) | ZEAMX rating ([18]; rate 0.100 kg/ha) | TRZAW rating ([19]; rate 0.400 kg/ha) | GLXMA rating ([20]; rate 0.100 kg/ha)
8 (8 - Approaching complete kill): MATIN rating ([2]; rate 0.025 kg/ha) | MATIN rating ([2]; rate 0.100 kg/ha) | MATIN rating ([2]; rate 0.400 kg/ha) | ECHCG rating ([3]; rate 0.100 kg/ha) | SETVI rating ([4]; rate 0.025 kg/ha) | ALOMY rating ([5]; rate 0.100 kg/ha) | ALOMY rating ([5]; rate 0.400 kg/ha) | GALAP rating ([8]; rate 0.100 kg/ha) | GALAP rating ([8]; rate 0.400 kg/ha) | ABUTH rating ([9]; rate 0.400 kg/ha) | MATIN rating ([10]; rate 0.400 kg/ha) | ECHCG rating ([11]; rate 0.025 kg/ha) | ECHCG rating ([11]; rate 0.100 kg/ha) | LOLMU rating [13] | ALOMY rating ([14]; rate 0.100 kg/ha) | ALOMY rating ([14]; rate 0.400 kg/ha) | STEME rating ([15]; rate 0.400 kg/ha) | GALAP rating ([17]; rate 0.100 kg/ha)
7 (7 - Good herbicidal effect): ABUTH rating ([1]; rate 0.100 kg/ha) | ABUTH rating ([9]; rate 0.100 kg/ha) | MATIN rating ([10]; rate 0.100 kg/ha) | SETVI rating ([12]; rate 0.100 kg/ha) | IPOHE rating ([16]; rate 0.100 kg/ha) | GALAP rating ([17]; rate 0.025 kg/ha)
0 (0 - No effect): TRZAW rating ([19]; rate 0.025 kg/ha) | TRZAW rating ([19]; rate 0.100 kg/ha)
4 (4 - Injury): GALAP rating ([8]; rate 0.025 kg/ha) | MATIN rating ([10]; rate 0.025 kg/ha) | ZEAMX rating ([18]; rate 0.400 kg/ha)
3 (3 - Moderate effect): ABUTH rating ([1]; rate 0.025 kg/ha) | ECHCG rating ([3]; rate 0.025 kg/ha) | GLXMA rating ([20]; rate 0.400 kg/ha)
9 (9 - Complete kill): ABUTH rating ([1]; rate 0.400 kg/ha) | ECHCG rating ([3]; rate 0.400 kg/ha) | SETVI rating ([4]; rate 0.100 kg/ha) | SETVI rating ([4]; rate 0.400 kg/ha) | STEME rating ([6]; rate 0.025 kg/ha) | STEME rating ([6]; rate 0.100 kg/ha) | STEME rating ([6]; rate 0.400 kg/ha) | IPOHE rating ([7]; rate 0.100 kg/ha) | IPOHE rating ([7]; rate 0.400 kg/ha) | ECHCG rating ([11]; rate 0.400 kg/ha) | SETVI rating ([12]; rate 0.400 kg/ha) | IPOHE rating ([16]; rate 0.400 kg/ha) | GALAP rating ([17]; rate 0.400 kg/ha)
